pIC50: −log10 of the molar value.
Target: T1, recombinant Vps34 (Homo sapiens, UniProt Q8NEB9)
T1 construct: purchased Invitrogen PV5126
Assay: Phosphorylation of phosphatidylinositol (PI) by Vps34 in vitro, ADP detected by TR-FRET (HTRF Transcreener ADP)
Assay type: biochemical
Conditions: 10 μM ATP, 55 μg/ml PI, approximately 3 nM Vps34, 1 hour at ambient temperature; absolute IC50, mean of two independent experiments; read-out: IC50 activity range

T1 sequence (Q8NEB9 whole entry): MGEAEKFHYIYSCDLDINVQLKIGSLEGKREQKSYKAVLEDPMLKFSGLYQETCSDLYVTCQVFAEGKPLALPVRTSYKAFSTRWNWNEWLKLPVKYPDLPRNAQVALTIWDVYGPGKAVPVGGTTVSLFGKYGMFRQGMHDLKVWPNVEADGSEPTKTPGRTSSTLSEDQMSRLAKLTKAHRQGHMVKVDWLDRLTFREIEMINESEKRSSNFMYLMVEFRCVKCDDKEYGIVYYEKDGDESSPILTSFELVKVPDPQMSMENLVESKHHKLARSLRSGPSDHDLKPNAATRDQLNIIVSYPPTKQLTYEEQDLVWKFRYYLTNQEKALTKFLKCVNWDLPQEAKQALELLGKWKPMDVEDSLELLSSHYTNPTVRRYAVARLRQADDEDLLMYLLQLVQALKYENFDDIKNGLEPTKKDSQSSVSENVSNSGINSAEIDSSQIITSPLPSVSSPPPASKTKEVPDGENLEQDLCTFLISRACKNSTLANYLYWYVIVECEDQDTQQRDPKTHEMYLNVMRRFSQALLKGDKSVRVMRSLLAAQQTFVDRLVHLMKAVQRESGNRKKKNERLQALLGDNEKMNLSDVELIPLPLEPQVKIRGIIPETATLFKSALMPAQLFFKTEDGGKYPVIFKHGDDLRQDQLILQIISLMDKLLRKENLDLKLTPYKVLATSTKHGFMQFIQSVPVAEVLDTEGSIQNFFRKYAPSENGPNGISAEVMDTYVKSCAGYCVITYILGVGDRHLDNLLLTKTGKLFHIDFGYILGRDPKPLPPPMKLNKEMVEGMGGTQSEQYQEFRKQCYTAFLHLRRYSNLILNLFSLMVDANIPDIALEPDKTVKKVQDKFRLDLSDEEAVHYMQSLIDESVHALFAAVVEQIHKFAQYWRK

pIC50	Structure (SMILES)
> 8.00	C[C@@H]1COCCN1c1cc(=O)n2c(n1)N(CC(=O)OC(C)(C)C)[C@H](C(F)(F)F)CC2 [Example 260, [(S)-8-((R)-3-Methyl-morpholin-4-yl)-6-oxo-2-trifluoromethyl-3,4-dihydro-2H,6H-pyrimido[1,2-a]-pyrimidin-1-yl]acetic acid tert-butyl ester]
> 8.00	C[C@@H]1COCCN1c1cc(=O)n2c(n1)N(Cc1ccc(F)nc1)[C@H](C(F)(F)F)CC2 [Example 24, (S)-9-(6-Fluoropyridin-3-ylmethyl)-2-((R)-3-methylmorpholin-4-yl)-8-trifluoromethyl-6,7,8,9-tetrahydro-pyrimido[1,2-a]-pyrimidin-4-one]
> 8.00	COC(CN1c2nc(N3CCOC[C@H]3C)cc(=O)n2CC[C@H]1C(F)(F)F)C(C)C (single isomer, unassigned) [Example 288]
> 8.00	C[C@@H]1COCCN1c1cc(=O)n2c(n1)N(CC(=O)c1ccccn1)CC[C@@H]2C(F)(F)F [Example 102, (R)-2-((R)-3-Methyl-morpholin-4-yl)-9-(2-oxo-2-pyridin-2-yl-ethyl)-6-trifluoromethyl-6,7,8,9-tetrahydro-pyrimido[1,2-a]-pyrimidin-4-one]
> 8.00	COCCN1c2nc(N3CCOC[C@H]3C)c(F)c(=O)n2CC[C@H]1C(F)(F)F [Example 20, (S)-3-Fluoro-9-(2-methoxy-ethyl)-2-((R)-3-methylmorpholin-4-yl)-8-trifluoromethyl-6,7,8,9-tetrahydro-pyrimido[1,2-a]-pyrimidin-4-one]
> 8.00	C[C@@H]1COCCN1c1cc(=O)n2c(n1)N(CCc1ccccn1)[C@H](C(F)(F)F)CC2 [Example 220, (S)-2-((R)-3-Methyl-morpholin-4-yl)-9-(2-pyridin-2-ylethyl)-8-trifluoromethyl-6,7,8,9-tetrahydro-pyrimido[1,2-a]-pyrimidin-4-one]
> 8.00	C[C@@H]1COCCN1c1cc(=O)n2c(n1)N(CC(=O)C1(C)CCOCC1)[C@H](C(F)(F)F)CC2 [Example 310, (S)-2-((R)-3-Methyl-morpholin-4-yl)-9-[2-(4-methyl-tetrahydro-pyran-4-yl)-2-oxo-ethyl]-8-trifluoromethyl-6,7,8,9-tetrahydro-pyrimido[1,2-a]-pyrimidin-4-one]
> 8.00	C[C@@H]1COCCN1c1cc(=O)n2c(n1)N(Cc1nc(C(C)(C)C)no1)[C@H](C(F)(F)F)CC2 [Example 228, (S)-9-(3-tert-Butyl-[1,2,4]oxadiazol-5-yl-methyl)-2-((R)-3-methylmorpholin-4-yl)-8-trifluoromethyl-6,7,8,9-tetrahydro-pyrimido[1,2-a]-pyrimidin-4-one]
> 8.00	C[C@@H]1COCCN1c1nc2n(c(=O)c1F)CC[C@@H](C(F)(F)F)N2CC(=O)C1CCOCC1 [Example 18, (S)-3-Fluoro-2-((R)-3-methylmorpholin-4-yl)-9-[2-oxo-2-(tetrahydro-pyran-4-yl)ethyl]-8-trifluoromethyl-6,7,8,9-tetrahydro-pyrimido[1,2-a]-pyrimidin-4-one]
> 8.00	CC(C)Oc1ccc(N2CC[C@H](C(F)(F)F)n3c2nc(N2CCOC[C@H]2C)cc3=O)cn1 [Example 116, (R)-9-(6-Isopropoxy-pyridin-3-yl)-2-((R)-3-methylmorpholin-4-yl)-6-trifluoromethyl-6,7,8,9-tetrahydro-pyrimido[1,2-a]-pyrimidin-4-one]
> 8.00	CC(C)C(F)CN1c2nc(N3CCOC[C@H]3C)c(F)c(=O)n2CC[C@H]1C(F)(F)F (single isomer, unassigned) [Example 328]
> 8.00	C[C@@H]1COCCN1c1cc(=O)n2c(n1)N(c1ccc(C3CC3)nc1)CC[C@@H]2C(F)(F)F [Example 107, (R)-9-(6-Cyclopropyl-pyridin-3-yl)-2-((R)-3-methylmorpholin-4-yl)-6-trifluoromethyl-6,7,8,9-tetrahydro-pyrimido[1,2-a]-pyrimidin-4-one]
> 8.00	C[C@@H]1COC[C@@H](C)N1c1cc(=O)n2c(n1)N(c1cccnc1)[C@H](C(F)(F)F)CC2 [Example 160, (S)-2-((3R,5R)-3,5-Dimethylmorpholin-4-yl)-9-pyridin-3-yl-8-trifluoromethyl-6,7,8,9-tetrahydro-pyrimido[1,2-a]-pyrimidin-4-one]
> 8.00	C[C@@H]1COCCN1c1cc(=O)n2c(n1)N(CC(O)c1cccnc1)[C@H](C(F)(F)F)CC2 (single isomer, unassigned) [Example 209]
7.00 to 8.00	C[C@H]1COCCN1c1cc(=O)n2c(n1)N(Cc1ccc(Cl)s1)[C@H](C(F)(F)F)CC2 [Example 178, (S)-9-(5-Chloro-thiophen-2-ylmethyl)-2-((S)-3-methyl-morpholin-4-yl)-8-trifluoromethyl-6,7,8,9-tetrahydro-pyrimido[1,2-a]-pyrimidin-4-one]
> 8.00	C[C@@H]1COCCN1c1cc(=O)n2c(n1)N(CC(=O)c1ccnc(F)c1)[C@H](C(F)(F)F)CC2 [Example 25, (S)-9-[2-(2-Fluoro-pyridin-4-yl)-2-oxo-ethyl]-2-((R)-3-methyl-morpholin-4-yl)-8-trifluoromethyl-6,7,8,9-tetrahydro-pyrimido[1,2-a]-pyrimidin-4-one]
7.00 to 8.00	Cc1ccc(S(=O)(=O)N2c3nc(N4CCOC[C@H]4C)cc(=O)n3CC[C@H]2C(F)(F)F)cc1 [Example 104, (S)-2-((R)-3-Methyl-morpholin-4-yl)-9-(toluene-4-sulfonyl)-8-trifluoromethyl-6,7,8,9-tetrahydro-pyrimido[1,2-a]-pyrimidin-4-one]
> 8.00	COc1cc(N2CC[C@H](C(F)(F)F)n3c2nc(N2CCOC[C@H]2C)cc3=O)ccn1 [Example 109, (R)-9-(2-Methoxy-pyridin-4-yl)-2-((R)-3-methylmorpholin-4-yl)-6-trifluoromethyl-6,7,8,9-tetrahydro-pyrimido[1,2-a]-pyrimidin-4-one]
> 8.00	C[C@@H]1COCCN1c1cc(C(=O)CN2c3nc(N4CCOC[C@H]4C)cc(=O)n3CC[C@H]2C(F)(F)F)ccn1 [Example 303, (S)-2-((R)-3-Methyl-morpholin-4-yl)-9-{2-[2-((R)-3-methyl-morpholin-4-yl)pyridin-4-yl]-2-oxoethyl}-8-trifluoromethyl-6,7,8,9-tetrahydropyrimido[1,2-a]pyrimidin-4-one]
> 8.00	CCOC(=O)CN1c2nc(N3CCOC[C@H]3C)cc(=O)n2CC[C@H]1C(F)(F)F [Example 14, [(S)-8-((R)-3-Methyl-morpholin-4-yl)-6-oxo-2-trifluoromethyl-3,4-dihydro-2H,6H-pyrimido[1,2-a]-pyrimidin-1-yl]acetic acid ethyl ester]
> 8.00	C[C@@H]1COCCN1c1cc(=O)n2c(n1)N(c1ccnc(Cl)c1)[C@H](C(F)(F)F)CC2 [Example 79, (S)-9-(2-Chloro-pyridin-4-yl)-2-((R)-3-methylmorpholin-4-yl)-8-trifluoromethyl-6,7,8,9-tetrahydro-pyrimido[1,2-a]-pyrimidin-4-one]
> 8.00	C[C@@H]1COCCN1c1cc(=O)n2c(n1)N(Cc1cnco1)[C@H](C(F)(F)F)CC2 [Example 91, (S)-2-((R)-3-Methyl-morpholin-4-yl)-9-oxazol-5-ylmethyl-8-trifluoromethyl-6,7,8,9-tetrahydro-pyrimido[1,2-a]-pyrimidin-4-one]
